From patent publication US11655216B2 (priority 2016, dated 2023)
Like-named read-outs stand apart in the source and are kept apart here.

Legend:
[1] = target: T1, glutathione-S-transferase (GST) tagged LXRalpha LBD (ligand binding domain) (Homo sapiens, UniProt Q13133); experiment: biochemical
T1 construct: purchased Invitrogen pv4655
T1 sequence (Q13133 209-447 limits assumed): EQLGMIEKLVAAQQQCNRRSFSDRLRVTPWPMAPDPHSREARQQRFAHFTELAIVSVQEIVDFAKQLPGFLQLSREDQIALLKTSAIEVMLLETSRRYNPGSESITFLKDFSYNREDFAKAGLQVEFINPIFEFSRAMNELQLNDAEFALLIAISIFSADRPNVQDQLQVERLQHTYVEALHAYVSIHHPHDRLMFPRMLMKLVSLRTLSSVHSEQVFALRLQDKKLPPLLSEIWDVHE
Summary of the method: (§1)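 TR-FRET coactivator recruitment read-out: compounds first received either LBD, followed by a mix of terbium-labelled anti-GST antibody and fluorescein coactivator peptide. Signal measured by time-resolved FRET once plates had incubated at room temperature.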

[2] = target: T2, glutathione-S-transferase (GST) tagged LXRbeta LBD (ligand binding domain) (Homo sapiens, UniProt P55055); experiment: LanthaScreen TR-FRET Liver X Receptor Coactivator Assay, LXR beta; type: biochemical; details: for EC50: LXR beta IP, potency (Inflection Point), compound-induced co-activator recruitment, TR-FRET; for Emax: read-out: LXR beta actiivty at max dose, efficacy (% Emax) in relation to reference dual agonist T0901317
T2 construct: purchased Invitrogen pv4658
T2 sequence (P55055 222-460 limits assumed): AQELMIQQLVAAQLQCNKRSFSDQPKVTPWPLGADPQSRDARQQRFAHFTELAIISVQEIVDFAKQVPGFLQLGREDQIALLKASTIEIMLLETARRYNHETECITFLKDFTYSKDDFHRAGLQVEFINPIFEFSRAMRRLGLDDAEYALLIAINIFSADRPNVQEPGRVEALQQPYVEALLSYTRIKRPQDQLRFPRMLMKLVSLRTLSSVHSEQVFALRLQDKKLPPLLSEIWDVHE
Summary of the method: as §1

[3] = potency (Inflection Point), compound-induced co-activator recruitment, TR-FRET
[4] = read-out: LXR alpha actiivty at max dose, efficacy (% Emax) in relation to reference dual agonist T0901317
[5] = LXR alpha IP, potency (Inflection Point), compound-induced co-activator recruitment, TR-FRET
[6] = potency (Inflection Point), compound-induced co-activator recruitment, TR-FRET, read-out: LXR alpha IP

Row | LXR alpha IP [1] | Emax ([1]; read-out: LXR alpha actiivty at max dose) | Structure (SMILES) | LXR alpha IP [1, 3] | Emax [1, 4] | EC50 [2] | Emax [2] | EC50 [1, 5] | EC50 [1, 6] | Emax ([1]; efficacy (% Emax) in relation to reference dual agonist T0901317, read-out: LXR alpha actiivty at max dose)
1 | – | – | CCc1cccc([C@@](O)(C(=O)N2CCC(C[C@H]3C[C@@H](Oc4ccc(C(=O)N(C)C)c(Cl)c4)C3)CC2)C(F)(F)F)c1 (single isomer, unassigned) [Example 37-4, 2-chloro-4-((1R,3s)-3-((1-((R or S)-2-(3-ethylphenyl)-3,3,3-trifluoro-2-hydroxypropanoyl)piperidin-4-yl)methyl)cyclobutoxy)-N,N-dimethylbenzamide] | No IP | 13% | 16 nM | 120% | – | – | –
2 | – | – | CN(C)C(=O)c1ccc(O[C@H]2C[C@@H](CC3CCN(C(=O)[C@](O)(c4cccc(C5CC5)c4)C(F)(F)F)CC3)C2)cc1Cl (single isomer, unassigned) [Example 37-5, 2-chloro-4-((1R,3s)-3-((1-((R or S)-2-(3-cyclopropylphenyl)-3,3,3-trifluoro-2-hydroxypropanoyl)piperidin-4-yl)methyl)cyclobutoxy)-N,N-dimethylbenzamide] | – | 30% | 6 nM | 134% | 401 nM | – | –
3 | – | – | CN(C)C(=O)c1ccc(O[C@H]2C[C@@H](CC3CCN(C(=O)[C@](O)(c4cccc(C(F)(F)F)c4)C(F)(F)F)CC3)C2)cc1Cl (single isomer, unassigned) [Example 37-6, 2-chloro-N,N-dimethyl-4-((1R,3s)-3-((1-((R or S)-3,3,3-trifluoro-2-hydroxy-2-(3-(trifluoromethyl)phenyl)propanoyl)piperidin-4-yl)methyl)cyclobutoxy) benzamide] | – | 31% | 15 nM | 119% | 602 nM | – | –
4 | – | – | COc1cccc([C@](O)(C(=O)N2CCC(C[C@H]3C[C@@H](Oc4ccc(C(=O)N(C)C)c(Cl)c4)C3)CC2)C(F)F)c1 (single isomer, unassigned) [Example 37-7, 2-chloro-4-((1R,3s)-3-((1-((R or S)-3,3-difluoro-2-hydroxy-2-(3-methoxyphenyl)propanoyl)piperidin-4-yl)methyl)cyclobutoxy)-N,N-dimethylbenzamide] | No IP | 4% | 32 nM | 95% | – | – | –
5 | – | – | COc1cccc([C@@](O)(C(=O)N2CCC(C[C@H]3C[C@@H](Oc4ccc(C(=O)N(C)C)c(Cl)c4)C3)CC2)C(F)F)c1 (single isomer, unassigned) [Example 37-8, 2-chloro-4-((1R,3s)-3-((1-((R or S)-3,3-difluoro-2-hydroxy-2-(3-methoxyphenyl)propanoyl)piperidin-4-yl)methyl)cyclobutoxy)-N,N-dimethylbenzamide] | No IP | 0% | 354 nM | 51% | – | – | –
6 | – | – | CN(C)C(=O)c1ccc(O[C@H]2C[C@@H](CC3CCN(C(=O)[C@](O)(c4cccc(OC(F)F)c4)C(F)(F)F)CC3)C2)cc1Cl (single isomer, unassigned) [Example 37-9, 2-chloro-4-((1R,3s)-3-((1-((R or S)-2-(3-(difluoromethoxy)phenyl)-3,3,3-trifluoro-2-hydroxypropanoyl)piperidin-4-yl)methyl)cyclobutoxy)-N,N-dimethylbenzamide] | – | 25% | 16 nM | 111% | 1020 nM | – | –
7 | – | – | CN(C)C(=O)c1ccc(O[C@H]2C[C@@H](CC3CCN(C(=O)[C@](O)(c4cc(F)cc(Cl)c4)C(F)(F)F)CC3)C2)cc1Cl (single isomer, unassigned) [Example 37-10, 2-chloro-4-((1R,3s)-3-((1-((R or S)-2-(3-chloro-5-fluorophenyl)-3,3,3-trifluoro-2-hydroxypropanoyl)piperidin-4-yl)methyl)cyclobutoxy)-N,N-dimethylbenzamide] | – | 46% | 5 nM | 140% | 318 nM | – | –
8 | – | – | CN(C)C(=O)c1ccc(OC2CC(CC3CCN(C(=O)[C@](O)(c4ccccc4)C(F)(F)F)CC3)C2)cc1Cl (single isomer, unassigned) [Example 37-11, (R or S)-2-chloro-N,N-dimethyl-4-(3-((1-(3,3,3-trifluoro-2-hydroxy-2-phenylpropanoyl)piperidin-4-yl)methyl)cyclobutoxy) benzamide] | – | 33% | 92 nM | 113% | – | 563 nM | –
9 | – | – | Cc1cc(OC2CC(CC3CCN(C(=O)C(O)(c4cccc(OC5CC5)c4)C(F)(F)F)CC3)C2)ccc1C(=O)N(C)C (single isomer, unassigned) [Example 37-12, (R or S)-4-(3-((1-(2-(3-cyclopropoxyphenyl)-3,3,3-trifluoro-2-hydroxypropanoyl)piperidin-4-yl)methyl)cyclobutoxy)-N,N,2-trimethylbenzamide] | No IP | 0% | 63 nM | 106% | – | – | –
10 | – | – | COc1cccc([C@@](O)(C(=O)N2CCC([C@H]3CC[C@@H](Oc4ccc(C(=O)N(C)C)c(Cl)c4)CC3)CC2)C(F)(F)F)c1 (single isomer, unassigned) [Example 38-1, 2-chloro-N,N-dimethyl-4-((1S,4s)-4-(1-((R or S)-3,3,3-trifluoro-2-hydroxy-2-(3-methoxyphenyl)propanoyl)piperidin-4-yl)cyclohexyloxy)benzamid] | – | 44% | 3 nM | 89% | 49 nM | – | –
11 | No IP | 32% | CN(C)C(=O)c1ccc(OCCCC2CCN(C(=O)c3cc(F)ccc3F)CC2)cc1Cl [Example 3-1, 2-chloro-4-(3-(1-(2,5-difluorobenzoyl)piperidin-4-yl)propoxy)-N,N-dimethylbenzamide] | – | – | 501 nM | 62% | – | – | –
12 | – | – | CN(C)C(=O)c1ccc(OCCCCC2CCN(C(=O)C(C)(C)c3ccccc3)CC2)cc1Cl [Example 3-6, 2-chloro-N,N-dimethyl-4-(4-(1-(2-methyl-2-phenylpropanoyl)piperidin-4-yl)butoxy)benzamide] | No IP | 8% | 77 nM | 64% | – | – | –
13 | – | – | CN(C)C(=O)c1ccc(OCCCCC2CCN(C(=O)C3(c4ccccc4)CCC3)CC2)cc1Cl [Example 3-7, 2-chloro-N,N-dimethyl-4-(4-(1-(1-phenylcyclobutanecarbonyl)piperidin-4-yl)butoxy)benzamide] | No IP | 0% | 57 nM | 54% | – | – | –
14 | – | – | CN(C)C(=O)c1ccc(OCCCC2CCN(C(=O)c3c(F)cccc3F)CC2)nc1Cl [Example 3-14, 2-chloro-6-(3-(1-(2,6-difluorobenzoyl)piperidin-4-yl)propoxy)-N,N-dimethylnicotinamide] | No IP | 46% | 160 nM | 77% | – | – | –
15 | – | – | CN(C)C(=O)c1ccc(OCCCCC2CCN(C(=O)c3c(F)cccc3F)CC2)nc1Cl [Example 3-15, 2-chloro-6-(4-(1-(2,6-difluorobenzoyl)piperidin-4-yl)butoxy)-N,N-dimethylnicotinamide] | No IP | 14% | 328 nM | 80% | – | – | –
16 | – | – | CCOC(=O)N1CCN(C(=O)c2ccc(OCCCCC3CCN(C(=O)C(O)(c4ccccc4)C(F)(F)F)CC3)nc2Cl)CC1 (stereo not drawn) [Example 3-18, ethyl 4-(2-chloro-6-(4-(1-(3,3,3-trifluoro-2-hydroxy-2-phenylpropanoyl)piperidin-4-yl)butoxy)nicotinoyl) piperazine-l-carboxylate] | – | 33% | 17 nM | 75% | 498 nM | – | –
17 | – | – | CN(C)C(=O)c1ccc(OCCCCC2CCN(C(=O)C(O)(c3ccccc3)C(F)(F)F)CC2)nc1C#N (stereo not shown) [Example 4-1, 2-cyano-N,N-dimethyl-6-(4-(1-(3,3,3-trifluoro-2-hydroxy-2-phenylpropanoyl)piperidin-4-yl)butoxy)nicotinamide] | – | 37% | 30 nM | 77% | 419 nM | – | –
18 | – | – | CN(C)C(=O)c1ccc(OCCCCC2CCN(C(=O)C(O)(c3ccccn3)C(F)(F)F)CC2)nc1Cl (stereo not shown) [Example 6-1, 2-chloro-N,N-dimethyl-6-(4-(1-(3,3,3-trifluoro-2-hydroxy-2-(pyridin-2-yl)propanoyl)piperidin-4-yl)butoxy)nicotinamide] | – | – | 29 nM | 73% | – | 1330 nM | 28%
19 | – | – | CN(C)C(=O)c1ccc(OCCCCC2CCN(C(=O)C(O)(c3cccnc3)C(F)(F)F)CC2)nc1Cl (stereo not shown) [Example 6-2, 2-chloro-N,N-dimethyl-6-(4-(1-(3,3,3-trifluoro-2-hydroxy-2-(pyridin-3-yl)propanoyl)piperidin-4-yl)butoxy)nicotinamide] | – | 74% | 8 nM | 90% | 1230 nM | – | –
